# Source: paper PMC11579512, “Deoxybouvardin-glucoside induces apoptosis in non-small cell lung cancer cells by targeting EGFR/MET and AKT signaling pathway” (EXCLI Journal, 2024)
# pIC50: −log10 of the molar value. Like-named read-outs stand apart in the source and are kept apart here.
# Key:
# HCC827 cells = tested on: HCC827 cells
# Description: All culture media were supplemented with FBS (10 %) and P/S (1 %), and the cells were grown at 37 °C in 5 % CO2.
# The cells were treated with MTT and incubated for 2 h. The supernatants were removed, and the remaining formazan crystals were dissolved in DMSO before absorbance measurement at 570 nm using a Multiscan GO spectrophotometer (Thermo Fisher Scientific, Vantaa, Finland).
# AKT2 = molecular target: T1, AKT2 (Homo sapiens, UniProt P31751); experiment: In vitro ADP-Glo kinase assay, AKT2; format: biochemical
# T1 construct: purchased Promega
# Description: Subsequently, each well was added with ADP-Glo reagent and incubated for another 40 min. After completion of the kinase reaction, each well was added with kinase activity detection reagent and then incubated for 30 min. Liquid was dispensed with I.DOT (Dispendix, Stuttgart, Germany). Luminescence was measured on a Centro LB 960 microplate luminometer (Berthold Technologies).
# HCC827GR cells [1] = experiment: Cell cycle distribution (Muse, PI), HCC827GR; format: cell-based, human; details: 48 h
# Description: (§1) HaCaT cells were grown in DMEM, whereas HCC827 and HCC827GR cells were grown in RPMI 1640. All culture media were supplemented with FBS (10 %) and P/S (1 %), and the cells were grown at 37 °C in 5 % CO2.
# Cell cycle distribution analysis was performed using a Muse™ Cell Cycle Kit (MCH100106, Merck Millipore, Billerica, MA) based on propidium iodide (PI) staining. The cells were collected, fixed in 70 % ethanol overnight at -20 °C, and then stained with a Muse™ Cell Cycle Reagent at RT for 30 min in the dark. The cell cycle distribution was measured using a Muse™ Cell Analyzer (Merck Millipore).
# HCC827GR cells [2] = experiment: Multi-caspase assay, HCC827GR; format: cell-based, human; set-up: Caspase+ cells / Total Caspase+ cells / dead cells (multi-caspase assay) / Live cells (multi-caspase assay): unit not given here; details: for cells with activated caspases: 48 h, background 6.43 %; for Caspase+ cells / Caspase+/dead cells / Live cells (multi-caspase assay) / Total Caspase+ cells / dead cells (multi-caspase assay): HCC827GR
# Description: as §1
# T1 sequence (P31751 whole entry): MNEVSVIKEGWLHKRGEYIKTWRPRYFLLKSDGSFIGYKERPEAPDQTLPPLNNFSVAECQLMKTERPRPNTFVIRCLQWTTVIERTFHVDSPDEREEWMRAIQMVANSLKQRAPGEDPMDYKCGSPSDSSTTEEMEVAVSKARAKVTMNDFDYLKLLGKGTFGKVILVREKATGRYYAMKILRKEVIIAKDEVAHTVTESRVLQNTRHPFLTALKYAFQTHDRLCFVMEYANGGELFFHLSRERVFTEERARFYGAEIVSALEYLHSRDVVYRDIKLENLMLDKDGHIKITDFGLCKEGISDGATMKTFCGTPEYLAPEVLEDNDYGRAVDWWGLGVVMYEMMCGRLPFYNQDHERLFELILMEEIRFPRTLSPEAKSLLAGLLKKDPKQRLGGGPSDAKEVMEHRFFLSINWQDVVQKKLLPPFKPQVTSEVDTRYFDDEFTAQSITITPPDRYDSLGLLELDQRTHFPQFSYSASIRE
smiles,measurement,setting,value
"COc1ccc(C[C@H]2C(=O)N[C@@H](C)C(=O)N(C)[C@H]3Cc4ccc(cc4)Oc4cc(ccc4O[C@@H]4O[C@H](CO)[C@@H](O)[C@H](O)[C@H]4O)C[C@@H](C(=O)N[C@H](C)C(=O)N[C@@H](C)C(=O)N2C)N(C)C3=O)cc1 [DBG, deoxybouvardin glucoside]",cell viability,"HCC827 cells; 24 h, DBG 3 nM, replicate 1",86.91%
same,cell viability,"HCC827 cells; 24 h, DBG 3 nM, replicate 2",83.02%
same,cell viability,"HCC827 cells; 24 h, DBG 3 nM, replicate 3",81.91%
same,cell viability,"HCC827 cells; 24 h, DBG 6 nM, replicate 1",73.81%
same,cell viability,"HCC827 cells; 24 h, DBG 6 nM, replicate 2",74.94%
same,cell viability,"HCC827 cells; 24 h, DBG 6 nM, replicate 3",75.18%
same,cell viability,"HCC827 cells; 24 h, DBG 12 nM, replicate 1",63.61%
same,cell viability,"HCC827 cells; 24 h, DBG 12 nM, replicate 2",64.36%
same,cell viability,"HCC827 cells; 24 h, DBG 12 nM, replicate 3",66.17%
same,pIC50,HCC827 cells; 48 h,8.07
same,cell viability,"HCC827 cells; 48 h, DBG 3 nM, replicate 1",82.82%
same,cell viability,"HCC827 cells; 48 h, DBG 3 nM, replicate 2",81.25%
same,cell viability,"HCC827 cells; 48 h, DBG 3 nM, replicate 3",79.60%
same,cell viability,"HCC827 cells; 48 h, DBG 6 nM, replicate 1",60.78%
same,cell viability,"HCC827 cells; 48 h, DBG 6 nM, replicate 2",58.53%
same,cell viability,"HCC827 cells; 48 h, DBG 6 nM, replicate 3",60.97%
same,cell viability,"HCC827 cells; 48 h, DBG 12 nM, replicate 1",37.02%
same,cell viability,"HCC827 cells; 48 h, DBG 12 nM, replicate 2",36.88%
same,cell viability,"HCC827 cells; 48 h, DBG 12 nM, replicate 3",36.42%
same,"viability, in words","HCC827 cells; DBG 3, 6, 12 nM",suppressed the viability
same,pIC50,"AKT2; ADP-Glo, AKT2 5 ng, RT, 60 min, luminescence, n=3",7.95
same,"kinase activity, in words","AKT2; DBG 3, 6, 12 nM",significantly inhibited
same,G0/G1 distribution,"HCC827GR cells [1]; DBG 3 nM, mean of 3 samples",53.10
same,G2/M distribution,"HCC827GR cells [1]; DBG 3 nM, mean of 3 samples",37.67
same,S distribution,"HCC827GR cells [1]; DBG 3 nM, mean of 3 samples",9.23
same,G0/G1 distribution,"HCC827GR cells [1]; DBG 3 nM, sample 1",51.80
same,G2/M distribution,"HCC827GR cells [1]; DBG 3 nM, sample 1",39.10
same,S distribution,"HCC827GR cells [1]; DBG 3 nM, sample 1",9.10
same,G0/G1 distribution,"HCC827GR cells [1]; DBG 3 nM, sample 2",53.80
same,G2/M distribution,"HCC827GR cells [1]; DBG 3 nM, sample 2",36.60
same,S distribution,"HCC827GR cells [1]; DBG 3 nM, sample 2",9.60
same,G0/G1 distribution,"HCC827GR cells [1]; DBG 3 nM, sample 3",53.70
same,G2/M distribution,"HCC827GR cells [1]; DBG 3 nM, sample 3",37.30
same,S distribution,"HCC827GR cells [1]; DBG 3 nM, sample 3",9.00
same,G0/G1 distribution,"HCC827GR cells [1]; DBG 6 nM, mean of 3 samples",54.77
same,G2/M distribution,"HCC827GR cells [1]; DBG 6 nM, mean of 3 samples",36.33
same,S distribution,"HCC827GR cells [1]; DBG 6 nM, mean of 3 samples",8.90
same,G0/G1 distribution,"HCC827GR cells [1]; DBG 6 nM, sample 1",54.30
same,G2/M distribution,"HCC827GR cells [1]; DBG 6 nM, sample 1",36.50
same,S distribution,"HCC827GR cells [1]; DBG 6 nM, sample 1",9.20
same,G0/G1 distribution,"HCC827GR cells [1]; DBG 6 nM, sample 2",53.10
same,G2/M distribution,"HCC827GR cells [1]; DBG 6 nM, sample 2",37.80
same,S distribution,"HCC827GR cells [1]; DBG 6 nM, sample 2",9.10
same,G0/G1 distribution,"HCC827GR cells [1]; DBG 6 nM, sample 3",56.90
same,G2/M distribution,"HCC827GR cells [1]; DBG 6 nM, sample 3",34.70
same,S distribution,"HCC827GR cells [1]; DBG 6 nM, sample 3",8.40
same,G0/G1 distribution,"HCC827GR cells [1]; DBG 12 nM, mean of 3 samples",56.93
same,G2/M distribution,"HCC827GR cells [1]; DBG 12 nM, mean of 3 samples",34.27
same,S distribution,"HCC827GR cells [1]; DBG 12 nM, mean of 3 samples",8.77
same,G0/G1 distribution,"HCC827GR cells [1]; DBG 12 nM, sample 1",57.50
same,G2/M distribution,"HCC827GR cells [1]; DBG 12 nM, sample 1",33.40
same,S distribution,"HCC827GR cells [1]; DBG 12 nM, sample 1",9.00
same,G0/G1 distribution,"HCC827GR cells [1]; DBG 12 nM, sample 2",56.20
same,G2/M distribution,"HCC827GR cells [1]; DBG 12 nM, sample 2",35.10
same,S distribution,"HCC827GR cells [1]; DBG 12 nM, sample 2",8.70
same,G0/G1 distribution,"HCC827GR cells [1]; DBG 12 nM, sample 3",57.10
same,G2/M distribution,"HCC827GR cells [1]; DBG 12 nM, sample 3",34.30
same,S distribution,"HCC827GR cells [1]; DBG 12 nM, sample 3",8.60
same,increase in proportion of cells at G1 phase,HCC827GR cells [1]; concentration not given,2.36%
same,cells with activated caspases,HCC827GR cells [2]; DBG 3 nM,23.91%
same,cells with activated caspases,HCC827GR cells [2]; DBG 6 nM,31.13%
same,cells with activated caspases,HCC827GR cells [2]; DBG 12 nM,33.34%
same,Caspase+ cells,"HCC827GR cells [2]; DBG 3 nM, mean of samples 1-3",8.71
same,Caspase+/dead cells,"HCC827GR cells [2]; DBG 3 nM, mean of samples 1-3",15.20
same,Live cells (multi-caspase assay),"HCC827GR cells [2]; DBG 3 nM, mean of samples 1-3",74.50
same,Total Caspase+ cells,"HCC827GR cells [2]; DBG 3 nM, mean of samples 1-3",23.91
same,dead cells (multi-caspase assay),"HCC827GR cells [2]; DBG 3 nM, mean of samples 1-3",1.60
same,Caspase+ cells,"HCC827GR cells [2]; DBG 3 nM, sample 1",8.78
same,Caspase+/dead cells,"HCC827GR cells [2]; DBG 3 nM, sample 1",15.95
same,Live cells (multi-caspase assay),"HCC827GR cells [2]; DBG 3 nM, sample 1",73.93
same,Total Caspase+ cells,"HCC827GR cells [2]; DBG 3 nM, sample 1",24.73
same,dead cells (multi-caspase assay),"HCC827GR cells [2]; DBG 3 nM, sample 1",1.34
same,Caspase+ cells,"HCC827GR cells [2]; DBG 3 nM, sample 2",8.19
same,Caspase+/dead cells,"HCC827GR cells [2]; DBG 3 nM, sample 2",14.57
same,Live cells (multi-caspase assay),"HCC827GR cells [2]; DBG 3 nM, sample 2",75.49
same,Total Caspase+ cells,"HCC827GR cells [2]; DBG 3 nM, sample 2",22.76
same,dead cells (multi-caspase assay),"HCC827GR cells [2]; DBG 3 nM, sample 2",1.75
same,Caspase+ cells,"HCC827GR cells [2]; DBG 3 nM, sample 3",9.16
same,Caspase+/dead cells,"HCC827GR cells [2]; DBG 3 nM, sample 3",15.07
same,Live cells (multi-caspase assay),"HCC827GR cells [2]; DBG 3 nM, sample 3",74.07
same,Total Caspase+ cells,"HCC827GR cells [2]; DBG 3 nM, sample 3",24.23
same,dead cells (multi-caspase assay),"HCC827GR cells [2]; DBG 3 nM, sample 3",1.70
same,Caspase+ cells,"HCC827GR cells [2]; DBG 6 nM, mean of samples 1-3",7.98
same,Caspase+/dead cells,"HCC827GR cells [2]; DBG 6 nM, mean of samples 1-3",23.15
same,Live cells (multi-caspase assay),"HCC827GR cells [2]; DBG 6 nM, mean of samples 1-3",67.79
same,Total Caspase+ cells,"HCC827GR cells [2]; DBG 6 nM, mean of samples 1-3",31.13
same,dead cells (multi-caspase assay),"HCC827GR cells [2]; DBG 6 nM, mean of samples 1-3",1.08
same,Caspase+ cells,"HCC827GR cells [2]; DBG 6 nM, sample 1",7.79
same,Caspase+/dead cells,"HCC827GR cells [2]; DBG 6 nM, sample 1",23.36
same,Live cells (multi-caspase assay),"HCC827GR cells [2]; DBG 6 nM, sample 1",67.58
same,Total Caspase+ cells,"HCC827GR cells [2]; DBG 6 nM, sample 1",31.15
same,dead cells (multi-caspase assay),"HCC827GR cells [2]; DBG 6 nM, sample 1",1.27
same,Caspase+ cells,"HCC827GR cells [2]; DBG 6 nM, sample 2",7.88
same,Caspase+/dead cells,"HCC827GR cells [2]; DBG 6 nM, sample 2",23.02
same,Live cells (multi-caspase assay),"HCC827GR cells [2]; DBG 6 nM, sample 2",67.97
same,Total Caspase+ cells,"HCC827GR cells [2]; DBG 6 nM, sample 2",30.90
same,dead cells (multi-caspase assay),"HCC827GR cells [2]; DBG 6 nM, sample 2",1.13
same,Caspase+ cells,"HCC827GR cells [2]; DBG 6 nM, sample 3",8.26
same,Caspase+/dead cells,"HCC827GR cells [2]; DBG 6 nM, sample 3",23.08
same,Live cells (multi-caspase assay),"HCC827GR cells [2]; DBG 6 nM, sample 3",67.82
same,Total Caspase+ cells,"HCC827GR cells [2]; DBG 6 nM, sample 3",31.34
same,dead cells (multi-caspase assay),"HCC827GR cells [2]; DBG 6 nM, sample 3",0.83
same,Caspase+ cells,"HCC827GR cells [2]; DBG 12 nM, mean of samples 1-3",9.57
same,Caspase+/dead cells,"HCC827GR cells [2]; DBG 12 nM, mean of samples 1-3",23.77
same,Live cells (multi-caspase assay),"HCC827GR cells [2]; DBG 12 nM, mean of samples 1-3",66.05
same,Total Caspase+ cells,"HCC827GR cells [2]; DBG 12 nM, mean of samples 1-3",33.34
same,dead cells (multi-caspase assay),"HCC827GR cells [2]; DBG 12 nM, mean of samples 1-3",0.61
same,Caspase+ cells,"HCC827GR cells [2]; DBG 12 nM, sample 1",11.11
same,Caspase+/dead cells,"HCC827GR cells [2]; DBG 12 nM, sample 1",21.58
same,Live cells (multi-caspase assay),"HCC827GR cells [2]; DBG 12 nM, sample 1",67.07
same,Total Caspase+ cells,"HCC827GR cells [2]; DBG 12 nM, sample 1",32.69
same,dead cells (multi-caspase assay),"HCC827GR cells [2]; DBG 12 nM, sample 1",0.24
same,Caspase+ cells,"HCC827GR cells [2]; DBG 12 nM, sample 2",10.36
same,Caspase+/dead cells,"HCC827GR cells [2]; DBG 12 nM, sample 2",24.35
same,Live cells (multi-caspase assay),"HCC827GR cells [2]; DBG 12 nM, sample 2",65.05
same,Total Caspase+ cells,"HCC827GR cells [2]; DBG 12 nM, sample 2",34.70
same,dead cells (multi-caspase assay),"HCC827GR cells [2]; DBG 12 nM, sample 2",0.24
same,Caspase+ cells,"HCC827GR cells [2]; DBG 12 nM, sample 3",7.24
same,Caspase+/dead cells,"HCC827GR cells [2]; DBG 12 nM, sample 3",25.38
same,Live cells (multi-caspase assay),"HCC827GR cells [2]; DBG 12 nM, sample 3",66.02
same,Total Caspase+ cells,"HCC827GR cells [2]; DBG 12 nM, sample 3",32.62
same,dead cells (multi-caspase assay),"HCC827GR cells [2]; DBG 12 nM, sample 3",1.36
